Publication PMC4648258 (ACS infectious diseases, 2015)
≈ marks a conversion by molar mass, not a printed value.

Columns and labels:
[1] = test system: M. tuberculosis rRMP (ATCC 35838); test: microbe, parasite or virus in culture; assay type: cell-based, Mycobacterium tuberculosis
[2] = test system: M. tuberculosis rINH (ATCC 35822); test: microbe, parasite or virus in culture; assay type: cell-based, Mycobacterium tuberculosis
[3] = test system: M. tuberculosis rSM (ATCC 35820); test: microbe, parasite or virus in culture; assay type: cell-based, Mycobacterium tuberculosis
[4] = test system: M. tuberculosis rKM (ATCC 35827); test: microbe, parasite or virus in culture; assay type: cell-based, Mycobacterium tuberculosis
[5] = test system: M. tuberculosis thyA overexpression mutant; assay type: cell-based
[6] = test system: M. tuberculosis thyX overexpression mutant; assay type: cell-based
[7] = test system: M. tuberculosis rCS (cycloserine; ATCC35826); test: microbe, parasite or virus in culture; assay type: cell-based; details: Mycobacterium tuberculosis
[8] = Mycobacterium tuberculosis, ATCC35838
[9] = Mycobacterium tuberculosis, ATCC35822
[10] = Mycobacterium tuberculosis, ATCC35820
[11] = Mycobacterium tuberculosis, ATCC35827

SMILES	MIC ([1]; MABA, rRMP strain)	MIC ([2]; MABA, rINH strain)	MIC ([3]; MABA, rSM strain)	MIC ([4]; MABA, rKM strain)	MIC differential versus H37Rv wild-type [5]	MIC differential versus H37Rv wild-type [6]	MIC [1, 8]	MIC [2, 9]	MIC [3, 10]	MIC [4, 11]	MIC [7]
CCCc1c2c([nH]c(=O)c1C)C(=O)c1[nH]c(=O)c(C)c(CCC)c1C2=O [Compound 3, diazaquinomycin A]	0.27 µg/mL (≈ 0.762 µM)	0.13 µg/mL (≈ 0.367 µM)	0.17 µg/mL (≈ 0.48 µM)	0.06 µg/mL (≈ 0.169 µM)	did not observe a significant differential in the MIC	did not observe a significant differential in the MIC					
NNC(=O)c1ccncc1 [INH, isoniazid]							0.02 µg/mL (≈ 0.146 µM)	> 2 µg/mL	0.02 µg/mL (≈ 0.146 µM)	0.03 µg/mL (≈ 0.219 µM)	0.01 µg/mL (≈ 0.0729 µM)
NC[C@H]1O[C@H](O[C@H]2[C@H](O)[C@@H](O[C@H]3O[C@H](CO)[C@@H](O)[C@H](N)[C@H]3O)[C@H](N)C[C@@H]2N)[C@H](O)[C@@H](O)[C@@H]1O [KM, kanamycin]		0.95 µg/mL (≈ 1.96 µM)	0.95 µg/mL (≈ 1.96 µM)	>2.00 µg/mL							
O=[N+]([O-])c1cn2c(n1)OC[C@@H](OCc1ccc(OC(F)(F)F)cc1)C2 [PA824]							0.03 µg/mL (≈ 0.0835 µM)	0.03 µg/mL (≈ 0.0835 µM)	0.11 µg/mL (≈ 0.306 µM)	0.19 µg/mL (≈ 0.529 µM)	
CO[C@H]1/C=C/O[C@@]2(C)Oc3c(C)c(O)c4c(O)c(c(/C=N/N5CCN(C)CC5)c(O)c4c3C2=O)NC(=O)/C(C)=C\C=C\[C@H](C)[C@H](O)[C@@H](C)[C@@H](O)[C@@H](C)[C@H](OC(C)=O)[C@@H]1C [RMP, rifampicin]							> 2 µg/mL	0.01 µg/mL (≈ 0.0122 µM)	0.03 µg/mL (≈ 0.0365 µM)	< 0.01 µg/mL	< 0.01 µg/mL
[H]/N=C(/N)N[C@H]1[C@H](O)[C@@H](O)[C@H](O[C@@H]2O[C@@H](C)[C@](O)(C=O)[C@H]2O[C@@H]2O[C@@H](CO)[C@H](O)[C@@H](O)[C@@H]2NC)[C@@H](N/C(N)=N\[H])[C@@H]1O [SM, streptomycin]								0.46 µg/mL (≈ 0.791 µM)	> 2 µg/mL	1.2 µg/mL (≈ 2.06 µM)	
